Patent publication US20110130380A1, “Heteroaryl Kinase Inhibitors” (priority 2009, published 2011)

Molecular target: Cdk9/cyclinT1 (Homo sapiens, UniProt P50750)
Assay: Cdk9/cyclinT1 IMAP Protocol (fluorescence polarization kinase assay)
Conditions: ATP 6 uM
[1] = Cdk9_cyclinT1_IC50, Table V, generated using one of the two Cdk9/cyclinT1 assays (IMAP or Alpha Screen), not stated which

Chain of Cdk9/cyclinT1 (P50750 whole entry): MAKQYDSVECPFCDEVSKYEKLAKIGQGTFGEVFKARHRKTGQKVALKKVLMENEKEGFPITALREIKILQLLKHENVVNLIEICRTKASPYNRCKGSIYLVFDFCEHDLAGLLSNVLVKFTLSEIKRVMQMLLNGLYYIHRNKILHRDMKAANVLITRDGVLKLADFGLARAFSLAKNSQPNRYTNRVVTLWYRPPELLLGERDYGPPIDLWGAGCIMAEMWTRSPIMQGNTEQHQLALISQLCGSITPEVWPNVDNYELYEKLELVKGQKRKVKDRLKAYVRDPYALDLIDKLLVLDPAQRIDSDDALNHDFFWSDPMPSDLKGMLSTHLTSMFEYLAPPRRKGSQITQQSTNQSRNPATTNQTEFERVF
Chain of Cdk9/cyclinT1 (O60563 whole entry partner): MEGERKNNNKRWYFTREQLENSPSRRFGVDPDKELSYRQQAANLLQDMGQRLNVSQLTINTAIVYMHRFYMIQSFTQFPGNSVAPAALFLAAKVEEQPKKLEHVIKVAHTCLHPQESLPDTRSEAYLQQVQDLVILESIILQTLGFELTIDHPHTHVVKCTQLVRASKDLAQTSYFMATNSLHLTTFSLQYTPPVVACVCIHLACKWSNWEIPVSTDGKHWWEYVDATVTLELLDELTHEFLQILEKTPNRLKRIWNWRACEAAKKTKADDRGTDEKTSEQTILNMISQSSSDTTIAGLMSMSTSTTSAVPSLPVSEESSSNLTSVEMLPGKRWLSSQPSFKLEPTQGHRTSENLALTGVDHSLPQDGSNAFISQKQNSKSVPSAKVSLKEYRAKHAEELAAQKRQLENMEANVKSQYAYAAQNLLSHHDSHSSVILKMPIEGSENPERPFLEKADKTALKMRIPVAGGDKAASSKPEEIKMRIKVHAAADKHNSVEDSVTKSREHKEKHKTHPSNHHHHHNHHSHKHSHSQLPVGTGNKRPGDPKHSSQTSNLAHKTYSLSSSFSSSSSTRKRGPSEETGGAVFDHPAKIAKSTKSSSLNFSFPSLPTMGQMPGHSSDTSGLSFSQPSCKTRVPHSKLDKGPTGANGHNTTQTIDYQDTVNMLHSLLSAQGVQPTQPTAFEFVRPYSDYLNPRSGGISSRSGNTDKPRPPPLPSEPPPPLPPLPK

Compound | IC50 [1] [µM] | IC50 (Cdk9_cyclinT1_IC50, generated using one of the two Cdk9/cyclinT1 assays (IMAP or Alpha Screen), not specified per value) [µM]
CC(=O)Nc1cc(-c2cccc(NCC3CCOCC3)n2)c(Cl)cn1 [Example 69, N-{5′-Chloro-6-[(tetrahydro-pyran-4-ylmethyl)-amino]-[2,4′]bipyridinyl-2′-yl}-acetamide] | 0.139 | 
[2H]C([2H])(Nc1cccc(-c2cc(NC(=O)[C@H]3CNCCO3)ncc2Cl)n1)C1CCOCC1 [Example 180, (R)-Morpholine-2-carboxylic acid {5′-chloro-6-[(tetrahydro-pyran-4-yl(dideuteromethyl))-amino]-[2,4′]bipyridinyl-2′-yl}-amide] | 0.02 | 
O=C(Nc1cc(-c2cccc(NCC3CCOCC3)n2)c(Cl)cn1)[C@H]1CCCNC1 [Example 8, (S)-Piperidine-3-carboxylic acid {5′-chloro-6-[(tetrahydro-pyran-4-ylmethyl)-amino]-[2,4′]bipyridinyl-2′-yl}-amide] | 0.046 | 
O=C(Nc1cc(-c2cccc(NCc3ccccn3)n2)c(Cl)cn1)[C@@H]1CCCNC1 [Example 52, (R)-Piperidine-3-carboxylic acid {5′-chloro-6-[(pyridin-2-ylmethyl)-amino]-[2,4′]bipyridinyl-2′-yl}-amide] | 0.038 | 
O=C(Nc1cc(-c2cccc(NCC3CCOCC3)n2)c(Cl)cn1)[C@H]1CNC[C@@H]1O [Example 122, (3S,4R)-4-Hydroxy-pyrrolidine-3-carboxylic acid {5′-chloro-6-[(tetrahydro-pyran-4-ylmethyl)-amino]-[2,4′]bipyridinyl-2′-yl}-amide] | 0.015 | 
CC(C)C(=O)Nc1cc(-c2cc(NCC3CCOCC3)cnc2Cl)c(Cl)cn1 [Example 313, N-{2,5′-Dichloro-5-[(tetrahydro-pyran-4-ylmethyl)-amino]-[3,4′]bipyridinyl-2′-yl}-isobutyramide] |  | < 0.008
O=C(Nc1cc(-c2cccc(NC[C@H]3CCCO3)n2)c(Cl)cn1)[C@@H]1CCCNC1 [Example 25, (R)-Piperidine-3-carboxylic acid (5′-chloro-6-{[(R)-1-(tetrahydro-furan-2-yl)methyl]-amino}-[2,4′]bipyridinyl-2′-yl)-amide] | 0.047 | 

Now from value to molecule:

IC50 [1] [µM] | IC50 (Cdk9_cyclinT1_IC50, generated using one of the two Cdk9/cyclinT1 assays (IMAP or Alpha Screen), not specified per value) [µM] | Compound
< 0.008 |  | O=C(Nc1cc(-c2cccc(NCC3COCCO3)n2)c(Cl)cn1)[C@@H]1CCCNC1 (stereo partly drawn) [Example 24, (R)-Piperidine-3-carboxylic acid {5′-chloro-6-[([1,4]dioxan-2-ylmethyl)-amino]-[2,4′]bipyridinyl-2′-yl}-amide]
0.001 |  | CC1(C)CO[C@H](CNc2cccc(-c3cc(NC(=O)[C@@H]4CCCNC4)ncc3Cl)n2)CO1 (single isomer, unassigned) [Example 232]
0.001 |  | O=C(Nc1cc(-c2cccc(NCC3(F)CCOCC3)n2)c(Cl)cn1)[C@@H]1CCCNC1 [Example 237, (R)-Piperidine-3-carboxylic acid {5′-chloro-6-[(4-fluoro-tetrahydro-pyran-4-ylmethyl)-amino]-[2,4′]bipyridinyl-2′-yl}-amide]
0.001 |  | CC1(C)C[C@@H](CNc2ccc(Cl)c(-c3cc(NC(=O)[C@H]4CNCCO4)ncc3Cl)n2)CCO1 (single isomer, unassigned) [Example 155]
0.009 |  | N[C@@H]1CCC[C@H](C(=O)Nc2cc(-c3cccc(NCC4CCOCC4)n3)c(Cl)cn2)C1 (racemic) [Example 59, (1S,3R)-/(1R,3S)-3-Amino-cyclohexanecarboxylic acid {5′-chloro-6-[(tetrahydro-pyran-4-ylmethyl)-amino]-[2,4′]bipyridinyl-2′-yl}-amide]
0.014 |  | O=C(Nc1cc(-c2nc(NCC3CCOCC3)ccc2Cl)c(Cl)cn1)[C@H]1CCCNC1 [Example 98, (S)-Piperidine-3-carboxylic acid {3,5′-dichloro-6-[(tetrahydro-pyran-4-ylmethyl)-amino]-[2,4′]bipyridinyl-2′-yl}-amide]
< 0.008 |  | O=C(Nc1cc(-c2cccc(NCC3CCCCCC3)n2)c(Cl)cn1)[C@@H]1CCCNC1 [Example 19, (R)-Piperidine-3-carboxylic acid [5′-chloro-6-(cycloheptylmethyl-amino)-[2,4′]bipyridinyl-2′-yl]-amide]
